According to patent US7955623B2, “Pharmaceutical preparations for treating inflammatory diseases” (priority 2008, dated 2011):
“Also recorded” adds a separate entry of the source. Peptide text beside a SMILES is read from it. * marks the point of attachment. Cbz = O=C(OCc1ccccc1)*; OtBu = CC(C)(C)O*

Test system: NF-κB
Test: Electrophoretic mobility shift assay of TNF-induced NF-κB activation in cell lines
Assay type: cell-based, human
Conditions: for Effect on TNF-induced NF-κB-activity of ozonized substance in phosphate-buffered saline: medium concentration in PBS, 100% ozonation state, 1 hr preincubation, TNF 1 ng/mL 15 min; for Inhibition of TNF-induced NF-κB-activity: preincubation 10 μM, 1 hr, n=3
Description: A) BHY cells were preincubated with serum-free O3-medium (15 min; the ozonation state is indicated in %) before TNF was added (20 ng/mL, 45 min) and electrophoretic mobility shift assay was performed (NF-κB and Sp-1 binding). The asterisk marks a control reaction in which a 100-fold concentration of unlabeled consensus oligonucleotide was added. B) Cells were treated with O3-medium (HGF-1, 45 min; HeLa, 1 hr) followed by stimulation with TNF (HGF-1, 5 ng/mL for 45 min; HeLa, 1 ng/mL for 15 min). NF-κB-activity normalized to Sp-1 is shown (densitometric analysis). NF-κB-activity after TNF stimulation following preincubation with non-ozonized medium was defined as 100% (dashed line) (n=3, mean±SD). C) Periodontal ligament tissue debris separated into equal-sized portions was incubated (1 hr, 37° C.) with serum-free non-ozonized medium (indicated by “-”) or O3-medium (100% ozonation state, indicated by “+”) followed by 2 hr incubation in fresh medium without ozone. The samples were shock frozen, homogenized and nuclear extracts prepared. Left: Electrophoretic mobility shift assays were performed (NF-κB and Sp-1 binding). The asterisk marks a control reaction in which a 100-fold concentration of unlabeled consensus oligonucleotide was added. Right: Densitometrically measured NF-κB-activity was normalized to Sp-1 (n=3, mean±SD). […] A) HeLa cells were incubated with O3-phosphate-buffered saline (1 hr) followed by TNF stimulation (1 ng/mL, 15 min). The ozonation state is indicated in %. Electrophoretic mobility shift assay was performed to determine NF-κB-activity as well as Sp-1 binding. B) Cells were preincubated (1 hr) with non-ozonized or ozonized amino acids (medium concentration) dissolved in phosphate-buffered saline (100% ozonation state) followed by stimulation with TNF (1 ng/mL, 15 min). The activation of NF-κB was determined by electrophoretic mobility shift assay. C) Densitometric analysis of the NF-κB-activity normalized to Sp-1 is shown (n=3, mean±SD). NF-κB-activity of cells preincubated with non-ozonized amino acids in phosphate-buffered saline and stimulated with TNF was defined as 100% (dashed line). D) HeLa cells were preincubated with non-ozonized or ozonized glucose (medium concentration) followed by TNF stimulation. The NF-κB-activity compared to Sp-1 binding was determined by electrophoretic mobility shift assay. […] The proteasome inhibitor PSI was from Calbiochem (Darmstadt, Germany). A potential toxicity of culture conditions was monitored by cell morphology/count, trypan-blue-exclusion and the Luminescent-Cell-Viability-Assay (Promega, Mannheim, Germany). […] Aqueous ozone was applied to the cells in form of ozonized medium without fetal calf serum (O3-medium) or ozonized phosphate-buffered saline (O3-phosphate-buffered saline) without/with 1 g/L amino acids or 2 g/L glucose. These solutions were treated with gaseous ozone (75 μg/mL, 15 min) using an ozone generator (Ozonosan-photonic, Dr. […], Germany). This condition, which applied to water would result in a final ozone concentration of 20 μg/mL (saturation point), was defined as the 100% ozonation state. For dose response experiments, the solutions were accordingly diluted. The ozone gas concentration was monitored by a photometer integrated in the ozone generator and confirmed by another ozone gas detector (GM-6000-NZL, Anseros, Tubingen, Germany). The ozone concentrations of the respective aqueous solutions were monitored photometrically ([…], England). […] The prototypic immunoglobulin κ-chain oligonucleotide was used as a probe and labeled with the Klenow fragment of DNA polymerase I (Roche, Penzberg, Germany) together with [α-^32P]dCTP (PerkinElmer-LifeSciences, Brussels, Belgium). The Sp-1 consensus oligonucleotide (Promega) was labeled with [γ-^32P]ATP (PerkinElmer-LifeSciences) and T4-polynucleotide-kinase (Roche). Samples were run on non-denaturing 4% polyacrylamide gels and analyzed by autoradiography.

N[C@@H](CS)C(=O)O [cysteine]
Effect on TNF-induced NF-κB-activity of ozonized substance in phosphate-buffered saline: blocked the NF-κB signal almost completely; also recorded: most effective

CSCC[C@H](N)C(=O)O [methionine]
Effect on TNF-induced NF-κB-activity of ozonized substance in phosphate-buffered saline: clear inhibition

N[C@@H](Cc1c[nH]c2ccccc12)C(=O)O [tryptophan]
Effect on TNF-induced NF-κB-activity of ozonized substance in phosphate-buffered saline: blocked the NF-κB signal almost completely; also recorded: most effective

NCC(=O)O [glycine]
Effect on TNF-induced NF-κB-activity of ozonized substance in phosphate-buffered saline: did not have any effect

CC[C@H](C)[C@H](NC(=O)OCc1ccccc1)C(=O)N[C@@H](CCC(=O)OC(C)(C)C)C(=O)N[C@@H](C)C(=O)N[C@H](C=O)CC(C)C [PSI, reference compound] (Cbz-IE(OtBu)AL-aldehyde)
Inhibition of TNF-induced NF-κB-activity (BHY cells): 68±7% | Inhibition of TNF-induced NF-κB-activity (HeLa cells): 75±6%

C[C@H](N)C(=O)O [alanine]
Effect on TNF-induced NF-κB-activity of ozonized substance in phosphate-buffered saline: slight reduction
